What was measured:
[1] = molecular target: T1, human recombinant GST cleaved CSNK1D (Homo sapiens, UniProt P48730); test: Purified Enzyme Assay (ADP-Glo CSNK1D Kinase Assay); type: biochemical; conditions: 2 nM CSNK1D; peptide substrate 150 μM; ATP 20 μM; 45 minutes at room temperature
T1 construct: GST (cleaved yes); purchased University of Dundee clone DU 19064
In short: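 Percent activity derived from ADP-Glo quantification of ADP produced. Reactions: compound dose-response with human recombinant GST-cleaved CSNK1D, ATP and substrate peptide PLSRTL-pS-VASLPGL, incubated 45 min at room temperature.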

human CSNK1D = molecular target: T2, human CSNK1D (Homo sapiens, UniProt P48730); test: Whole Cell nBRET CSNK1D Binding Assay; conditions: living CHO cells stably expressing human CSNK1D tagged with nanoluciferase; NanoBret tracer 130 nM; 2 hours at 37 C
T2 construct: expressed in transfected cells
T2 sequence (P48730 whole entry): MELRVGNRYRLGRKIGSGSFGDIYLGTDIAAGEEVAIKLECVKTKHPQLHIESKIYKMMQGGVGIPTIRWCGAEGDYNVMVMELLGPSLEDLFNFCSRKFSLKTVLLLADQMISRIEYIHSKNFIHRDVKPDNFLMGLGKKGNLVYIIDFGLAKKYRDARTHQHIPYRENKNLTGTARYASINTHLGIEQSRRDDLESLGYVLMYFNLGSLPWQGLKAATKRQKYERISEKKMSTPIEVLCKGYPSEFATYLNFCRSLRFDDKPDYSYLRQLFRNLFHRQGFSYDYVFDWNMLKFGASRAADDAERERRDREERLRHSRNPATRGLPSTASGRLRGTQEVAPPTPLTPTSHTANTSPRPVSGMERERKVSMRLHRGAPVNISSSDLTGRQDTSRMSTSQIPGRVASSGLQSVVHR

T1 sequence (P48730 whole entry): as above

CC1(C)Cn2nc(-c3ccc(F)cn3)c(-c3ccnc(NC(=O)CC(F)(F)F)c3)c2CO1 [Example 133, 3,3,3-Trifluoro-N-(4-(2-(5-fluoropyridin-2-yl)-6,6-dimethyl-6,7-dihydro-4H-pyrazolo[5,1-c][1,4]oxazin-3-yl)pyridin-2-yl)propenamide]
IC50 [1]: 2 nM | IC50 (human CSNK1D): 8 nM

CC1(C)Cn2nc(-c3ccc(F)cn3)c(-c3ccnc(NC(=O)C4CC4)c3)c2CO1 [Example 134, N-(4-(2-(5-Fluoropyridin-2-yl)-6,6-dimethyl-6,7-dihydro-4H-pyrazolo[5,1-c][1,4]oxazin-3-yl)pyridin-2-yl)cyclopropanecarboxamide]
IC50 [1]: 1 nM | IC50 (human CSNK1D): 7 nM

CC1(C)Cn2nc(-c3ccc(F)cn3)c(-c3ccnc(NC(=O)C4CC4(F)F)c3)c2CO1 (stereo not shown) [Example 135, 2,2-Difluoro-N-(4-(2-(5-fluoropyridin-2-yl)-6,6-dimethyl-6,7-dihydro-4H-pyrazolo[5,1-c][1,4]oxazin-3-yl)pyridin-2-yl)cyclopropane-1-carboxamide]
IC50 [1]: 3 nM | IC50 (human CSNK1D): 6 nM

CC1(C)Cn2nc(-c3ccc(F)cn3)c(-c3ccnc(NC(=O)c4ccccc4)c3)c2CO1 [Example 136, N-(4-(2-(5-Fluoropyridin-2-yl)-6,6-dimethyl-6,7-dihydro-4H-pyrazolo[5,1-c][1,4]oxazin-3-yl)pyridin-2-yl)benzamide]
IC50 [1]: 2 nM | IC50 (human CSNK1D): 6 nM

CC1(C)Cn2nc(-c3ccc(F)cn3)c(-c3ccnc4ccsc34)c2CO1 [Example 137, 2-(5-Fluoropyridin-2-yl)-6,6-dimethyl-3-(thieno[3,2-b]pyridin-7-yl)-6,7-dihydro-4H-pyrazolo[5,1-c][1,4]oxazine]
IC50 [1]: 54 nM | IC50 (human CSNK1D): 1330 nM

Cn1cc2nccc(-c3c(-c4ccc(F)cn4)nn4c3COC(C)(C)C4)c2n1 [Example 138, 2-(5-Fluoropyridin-2-yl)-6,6-dimethyl-3-(2-methyl-2H-pyrazolo[4,3-b]pyridin-7-yl)-6,7-dihydro-4H-pyrazolo[5,1-c][1,4]oxazine]
IC50 [1]: 106 nM | IC50 (human CSNK1D): 999 nM

CC1(C)Cn2nc(-c3ccc(F)cn3)c(-c3ccnc4cn[nH]c34)c2CO1 [Example 139, 2-(5-Fluoropyridin-2-yl)-6,6-dimethyl-3-(1H-pyrazolo[4,3-b]pyridin-7-yl)-6,7-dihydro-4H-pyrazolo[5,1-c][1,4]oxazine]
IC50 [1]: 450 nM | IC50 (human CSNK1D): > 10000 nM

CC1(C)Cn2nc(-c3ccc(F)cn3)c(-c3ccn4nccc4c3)c2CO1 [Example 140, 2-(5-Fluoropyridin-2-yl)-6,6-dimethyl-3-(pyrazolo[1,5-a]pyridin-5-yl)-6,7-dihydro-4H-pyrazolo[5,1-c][1,4]oxazine]
IC50 [1]: 18 nM | IC50 (human CSNK1D): 122 nM

CCn1ncc2cc(-c3c(-c4ccc(F)cn4)nn4c3COC(C)(C)C4)cnc21 [Example 141, 3-(1-Ethyl-1H-pyrazolo[3,4-b]pyridin-5-yl)-2-(5-fluoropyridin-2-yl)-6,6-dimethyl-6,7-dihydro-4H-pyrazolo[5,1-c][1,4]oxazine]
IC50 [1]: 344 nM | IC50 (human CSNK1D): 5690 nM

CC1(C)Cn2nc(-c3ccc(F)cc3)c(-c3ccnc4[nH]ncc34)c2CO1 [Example 144, 2-(4-Fluorophenyl)-6,6-dimethyl-3-(1H-pyrazolo[3,4-b]pyridin-4-yl)-6,7-dihydro-4H-pyrazolo[5,1-c][1,4]oxazine]
IC50 [1]: 1 nM | IC50 (human CSNK1D): 3 nM

Cc1cc(-c2c(-c3ccc(F)cc3)nn3c2COC(C)(C)C3)c2cn[nH]c2n1 [Example 145, 2-(4-Fluorophenyl)-6,6-dimethyl-3-(6-methyl-1H-pyrazolo[3,4-b]pyridin-4-yl)-6,7-dihydro-4H-pyrazolo[5,1-c][1,4]oxazine]
IC50 [1]: 1 nM | IC50 (human CSNK1D): 4 nM

CC1(C)Cn2nc(-c3ccc(Cl)cn3)c(-c3ccnc4[nH]ncc34)c2CO1 [Example 146, 2-(5-Chloropyridin-2-yl)-6,6-dimethyl-3-(1H-pyrazolo[3,4-b]pyridin-4-yl)-6,7-dihydro-4H-pyrazolo[5,1-c][1,4]oxazine]
IC50 [1]: 18 nM | IC50 (human CSNK1D): 359 nM

CC1(C)Cn2nc(-c3ccc(F)cn3)c(-c3ccnc4[nH]ccc34)c2CO1 [Example 147, 2-(5-Fluoropyridin-2-yl)-6,6-dimethyl-3-(1H-pyrrolo[2,3-b]pyridin-4-yl)-6,7-dihydro-4H-pyrazolo[5,1-c][1,4]oxazine]
IC50 [1]: 1 nM | IC50 (human CSNK1D): 11 nM

CC1(C)Cn2nc(-c3ccc(F)cn3)c(-c3ccnc4[nH]cc(C#N)c34)c2CO1 [Example 148, 4-(2-(5-Fluoropyridin-2-yl)-6,6-dimethyl-6,7-dihydro-4H-pyrazolo[5,1-c][1,4]oxazin-3-yl)-1H-pyrrolo[2,3-b]pyridine-3-carbonitrile]
IC50 [1]: 59 nM | IC50 (human CSNK1D): 3280 nM

CC1(C)Cn2nc(-c3ccc(F)cn3)c(-c3ccnc4cc[nH]c34)c2CO1 [Example 149, 2-(5-Fluoro-2-pyridyl)-6,6-dimethyl-3-(1H-pyrrolo[3,2-b]pyridin-7-yl)-4,7-dihydropyrazolo[5,1-c][1,4]oxazine]
IC50 [1]: 1420 nM | IC50 (human CSNK1D): > 10000 nM

CC1(C)Cn2nc(-c3ccc(F)cn3)c(-c3ccnc4[nH]nc(Br)c34)c2CO1 [Example 152, 3-(3-Bromo-1H-pyrazolo[3,4-b]pyridin-4-yl)-2-(5-fluoropyridin-2-yl)-6,6-dimethyl-6,7-dihydro-4H-pyrazolo[5,1-c][1,4]oxazine]
IC50 [1]: 3 nM | IC50 (human CSNK1D): 25 nM

Cn1ncc2c(-c3c(-c4ccc(F)cn4)nn4c3COC(C)(C)C4)ccnc21 [Example 153, 2-(5-Fluoro-2-pyridyl)-6,6-dimethyl-3-(1-methylpyrazolo[3,4-b]pyridin-4-yl)-4,7-dihydropyrazolo[5,1-c][1,4]oxazine]
IC50 [1]: 176 nM | IC50 (human CSNK1D): 3710 nM

Cc1cc(-c2c(-c3ccc(F)cn3)nn3c2COC(C)(C)C3)c2cn[nH]c2n1 [Example 154, 2-(5-Fluoro-2-pyridyl)-6,6-dimethyl-3-(6-methyl-1H-pyrazolo[3,4-b]pyridin-4-yl)-4,7-dihydropyrazolo[5,1-c][1,4]oxazine]
IC50 [1]: 2 nM | IC50 (human CSNK1D): 23 nM

CC1(C)Cn2nc(-c3ccc(F)cn3)c(-c3cc(C4CC4)nc4[nH]ncc34)c2CO1 [Example 155, 3-(6-Cyclopropyl-1H-pyrazolo[3,4-b]pyridin-4-yl)-2-(5-fluoropyridin-2-yl)-6,6-dimethyl-6,7-dihydro-4H-pyrazolo[5,1-c][1,4]oxazine]
IC50 [1]: 8 nM | IC50 (human CSNK1D): 172 nM

Cc1cc(-c2c(-c3ccc(F)cn3)nn3c2COC(C)(C)C3)c2c(C)n[nH]c2n1 [Example 156, 3-(3,6-Dimethyl-1H-pyrazolo[3,4-b]pyridin-4-yl)-2-(5-fluoro-2-pyridyl)-6,6-dimethyl-4,7-dihydropyrazolo[5,1-c][1,4]oxazine]
IC50 [1]: 5 nM | IC50 (human CSNK1D): 87 nM

Cc1nc2[nH]ncc2c(-c2c(-c3ccc(F)cn3)nn3c2COC(C)(C)C3)c1F [Example 157, 3-(5-Fluoro-6-methyl-1H-pyrazolo[3,4-b]pyridin-4-yl)-2-(5-fluoro-2-pyridyl)-6,6-dimethyl-4,7-dihydropyrazolo[5,1-c][1,4]oxazine]
IC50 [1]: 8 nM | IC50 (human CSNK1D): 72 nM

Cn1cc2c(-c3c(-c4ccc(F)cn4)nn4c3COC(C)(C)C4)ccnc2n1 [Example 158, 2-(5-Fluoro-2-pyridyl)-6,6-dimethyl-3-(2-methylpyrazolo[3,4-b]pyridin-4-yl)-4,7-dihydropyrazolo[5,1-c][1,4]oxazine]
IC50 [1]: 6870 nM | IC50 (human CSNK1D): > 10000 nM

Cn1ncc2nccc(-c3c(-c4ccc(F)cn4)nn4c3COC(C)(C)C4)c21 [Example 159, 2-(5-Fluoropyridin-2-yl)-6,6-dimethyl-3-(1-methyl-1H-pyrazolo[4,3-b]pyridin-7-yl)-6,7-dihydro-4H-pyrazolo[5,1-c][1,4]oxazine]
IC50 [1]: 1180 nM | IC50 (human CSNK1D): > 10000 nM

Cc1n[nH]c2nccc(-c3c(-c4ccc(F)cn4)nn4c3COC(C)(C)C4)c12 [Example 160, 2-(5-Fluoropyridin-2-yl)-6,6-dimethyl-3-(3-methyl-1H-pyrazolo[3,4-b]pyridin-4-yl)-6,7-dihydro-4H-pyrazolo[5,1-c][1,4]oxazine]
IC50 [1]: 9 nM | IC50 (human CSNK1D): 143 nM

COc1cccc(-c2nn3c(c2-c2ccnc4[nH]ncc24)COC(C)(C)C3)n1 [Example 161, 2-(6-Methoxypyridin-2-yl)-6,6-dimethyl-3-(1H-pyrazolo[3,4-b]pyridin-4-yl)-6,7-dihydro-4H-pyrazolo[5,1-c][1,4]oxazine]
IC50 [1]: 26 nM | IC50 (human CSNK1D): 1400 nM

CC1(C)Cn2nc(-c3ccncc3Cl)c(-c3ccnc4[nH]ncc34)c2CO1 [Example 162, 2-(3-Chloropyridin-4-yl)-6,6-dimethyl-3-(1H-pyrazolo[3,4-b]pyridin-4-yl)-6,7-dihydro-4H-pyrazolo[5,1-c][1,4]oxazine]
IC50 [1]: 143 nM | IC50 (human CSNK1D): > 10000 nM

Cc1nc(-c2nn3c(c2-c2ccnc4[nH]ncc24)COC(C)(C)C3)ccc1Cl [Example 163, 2-(5-Chloro-6-methylpyridin-2-yl)-6,6-dimethyl-3-(1H-pyrazolo[3,4-b]pyridin-4-yl)-6,7-dihydro-4H-pyrazolo[5,1-c][1,4]oxazine]
IC50 [1]: 59 nM | IC50 (human CSNK1D): 1920 nM

Cc1nc(-c2nn3c(c2-c2ccnc4[nH]ncc24)COC(C)(C)C3)ccc1F [Example 164, 2-(5-Fluoro-6-methylpyridin-2-yl)-6,6-dimethyl-3-(1H-pyrazolo[3,4-b]pyridin-4-yl)-6,7-dihydro-4H-pyrazolo[5,1-c][1,4]oxazine]
IC50 [1]: 9 nM | IC50 (human CSNK1D): 165 nM

CC1(C)Cn2nc(-c3c(F)cncc3F)c(-c3ccnc4[nH]ncc34)c2CO1 [Example 165, 2-(3,5-Difluoropyridin-4-yl)-6,6-dimethyl-3-(1H-pyrazolo[3,4-b]pyridin-4-yl)-6,7-dihydro-4H-pyrazolo[5,1-c][1,4]oxazine]
IC50 [1]: 15 nM | IC50 (human CSNK1D): 702 nM
